What was measured:
[1] = target: Phosphodiesterase III (PDE III); assay: Phosphodiesterase III Inhibition; assay type: biochemical, mongrel dogs (thoracic aorta); details: dog thoracic aorta PDE III; substrate concentration 1 μM; triplicate
Protocol: Procedure 1 --Phosphodiesterase III Inhibition
Phosphodiesterase III (PDE III) was obtained by a slight modification of the methods of Thompson et al. [Advances in Cyclic Nucleotide Research vol. […] Thoracic aorta from mongrel dogs was minced with fine scissors and homogenized in 10 volumes of a buffer containing 10 mM tris acetate, pH 7.5, 2 mM magnesium chloride, 1mM dithiothreitol and 2000 units per mL of aprotinin. This and subsequent procedures were performed at 0-4°. The tissue was homogenized, the homogenate was sonicated and the resultant homogenate was centrifuged at 48,000 g for 30 minutes. The resulting supernatant fraction was applied to a diethylaminoethyl ether (DEAE) cellulose column that had been equilibrated with 35 or 70 mM sodium acetate containing 1 mM dithiothreitol at pH 6.5. After application of the sample, the column was washed with 2-3 bed volumes of the equilibration buffer and the PDE isozyme was eluted from the column using a continuous sodium acetate gradient to 1 molar. Fractions of approximately 5 mL were collected and assayed for cAMP and cGMP PDE activity at substrate concentrations of 1 μM. Appropriate fractions corresponding to peak three were pooled and dialyzed against 70 mM sodium acetate, 0.5 mM dithiothreitol for at least 20 hours.

mean arterial pressure = assay: In vivo Vasodilation in the Rat; design: species or system normotensive male Sprague-Dawley rats; details: 0.4 mg/kg, orally by gavage
Protocol: Procedure 2--In vivo Vasodilation in the Rat
Normotensive male Sprague-Dawley rats of 325-425 g were anesthetized with sodium pentobarbital and an arterial catheter was placed in the abdominal aorta via the femoral artery. The catheter was tunneled subcutaneously, exteriorized at the nape of the neck, filled with heparinized saline and sealed with a stainless steel plug. The wounds were sutured and a suspension of penicillin G benzathine and penicillin G procaine was administered subcutaneously. All animals were allowed at least two days recovery prior to testing.
Rats were fasted 17 hours then placed into individual plexiglass boxes. The arterial catheter was connected to a Statham pressure transducer, positioned at the heart level, and the arterial pressure signal was recorded on a polygraph. The animals remained undisturbed for at least one hour to adapt to the testing environment. After the adaptation period, three baseline arterial pressure and heart rate measurements were taken at 15-minute intervals prior to the administration of the test drug. […] Arterial pressure and heart rate were measured at 15-minute intervals for the first hour and 30-minute intervals for the next four hours following the administration of drugs.
The data were analyzed by one-way analysis of variance for repeated measures. […]

SMILES	IC50 [1] [nM]	area under the curve for reduction of mean arterial pressure (mean arterial pressure; conscious normotensive rats) [%]	statistical significance of reduction of mean arterial pressure (mean arterial pressure; Student Newman-Keuls test, probability of less than 5%, to the end of the test at six hours)
Cc1[nH]c(=O)c(C#N)cc1-c1ccc2ncccc2c1 [Example 3, 1,2-Dihydro-6-methyl-2-oxo-5-(6-quinolinyl)-3-pyridinecarbonitrile]	57	75	statistical significance at all times to the end of the test at six hours
Cc1[nH]c(=O)c(C#N)cc1-c1ccncc1 [milrinone, reference compound]	500		

Source: patent US5141931A, “5-Quinolinylpyridinones, cardiotonic compositions and methods” (Sterling Winthrop Inc., priority 1991, dated 1992)
